# Key:
# HT-29 cells = assay: cells; details: Homo sapiens, HT-29, 48 h, read-out: HT-29 IV (intermediate value)
# Protocol: (§1) Cell viability was evaluated by MTT assay.
# (§2) It is necessary for this IV to have a method of comparison for the combination of experiments.
# (§3) Human colorectal cancer HT-29 and prostate cancer PC-3 cell lines were obtained from the American Type Culture Collection (ATCC; Manassas, VA, USA) and maintained according to ATCC’s recommendations at 37 °C and 5% CO2 in appropriate medium supplemented with 10% foetal bovine serum, 100 U/mL penicillin G and 100 µg/mL streptomycin. Cells were maintained in the logarithmic growth phase at all times. The media were changed every 2 days and trypsinised with 0.25% trypsin–EDTA. A total of 100 µL of HT-29 cells (7500 cells/well) or PC-3 cells (5000 cells/well) were seeded in 96-well plates and allowed to adhere overnight before drug exposure. After 24 h, the cell culture media were replaced with 100 µL of drug-containing media. […]
# (§4) The IV value was first determined for each drug alone in HT-29 and PC-3 cells. […] Both Drug A and Drug B concentrations were variable, and the combined effects of equipotent concentrations (fixed ratio) of the IV values for each drug were evaluated.
# (§5) For the MTT protocol, after drug treatment, the cell medium was removed and 100 µL/well of MTT solution (0.5 mg/mL in PBS) was added. […] Absorbance was measured at 570 nm in an automated microplate reader (Tecan Infinite M200, Tecan Group Ltd., Männedorf, Switzerland). […]
# PC-3 cells = assay: cells; details: Homo sapiens, PC-3, 48 h, read-out: PC-3 IV (intermediate value)
# Protocol: as §1, §2, §3, §4, §5
IC50 (HT-29 cells),IC50 (PC-3 cells),SMILES
2580 nM,,"O=c1[nH]cc(F)c(=O)[nH]1 [5-FU, 5-fluorouracil]"
,10 nM,"CC(=O)O[C@H]1C(=O)[C@@]2(C)[C@H]([C@H](OC(=O)c3ccccc3)[C@]3(O)C[C@H](OC(=O)[C@H](O)[C@@H](NC(=O)c4ccccc4)c4ccccc4)C(C)=C1C3(C)C)[C@]1(OC(C)=O)CO[C@@H]1C[C@@H]2O [PTX, paclitaxel]"

# From paper PMC8584931 (International Journal of Molecular Sciences, 2021)
